Assay results: patent US20050288307A1, “Anti-viral compounds” (priority 2002, published 2005)
Read-outs that look alike come from different tables or passages of the source.

Assays:
[1] = molecular target: CDK4/Cyclin D1 (Homo sapiens, UniProt P11802); assay: CDK4/cyclin D1 kinase assay (GST-Rb phosphorylation); type: biochemical
[2] = molecular target: Akt/PKB (Homo sapiens, UniProt P31749); assay: Kinase specificity panel: Akt/PKB; type: biochemical; conditions: Table 2
[3] = test system: CaMKII; type: biochemical; conditions: Table 2
[4] = molecular target: ERK2 (Homo sapiens, UniProt P28482); assay: Kinase specificity panel: ERK2; type: biochemical; conditions: Table 2
[5] = molecular target: T1, PKC (Homo sapiens, UniProt P17252); assay: PKC kinase assay (Histone 3 phosphorylation); type: biochemical; conditions: Table 2
T1 construct: 6xHis (C); made in house; host or cells: Sf9 insect cells (baculovirus)
Protocol: PKCα kinase activity may be measured by the incorporation of radio-labeled phosphate in Histone 3, as described. The reaction mixture (total volume 65 μl) consist of 50 mM Tris-HCl, 1 mM Calcium acetate, 3 mM DTT, 0.03 mg/ml Phosphatidylserine, 2.4 μg/ml PMA, 0.04% NP40, 12 mM Mg/Cl, purified PKCα-100 ng, Histone 3, 0.2 mg/ml, 100 μM ATP, 0.2 μCi [γ-^32P]-ATP. The reaction is carried over 15 min at 37° C. in microplate shaker and is stopped by adding 10 μl 75 mM orthophosphoric acid and placing the plate on ice. 50 μl of the reaction mixture is transferred onto P81 filterplate and after washing off the free radioactive phosphate (3 times with 200 μl 75 mM orthophosphoric acid per well) 50 μl of scintillation liquid (Microscint 40) were added to each well and the radioactivity is measured on Scintillation counter (Topcount, HP).

[6] = molecular target: SAPK2a (Homo sapiens, UniProt Q16539); assay: Kinase specificity panel: SAPK2a; type: biochemical; conditions: Table 2
[7] = molecular target: CDK1/Cyclin B (Homo sapiens, UniProt P06493); assay: CDK1/cyclin B kinase assay (GST-Rb phosphorylation);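 also: Enzyme: His-tagged CDK1/Cyclin B co-expressed in baculovirus-infected Sf9 insect cells, purified via metal-chelate chromatography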
[8] = molecular target: T2, CDK2/Cyclin E (Homo sapiens, UniProt P24941); assay: CDK2/cyclin E kinase assay (GST-Rb phosphorylation); type: biochemical;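 also: enzyme source: His-tagged CDK2/cyclin E complex co-expressed recombinantly in Sf9 insect cells using baculovirus constructs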
T2 construct: His; made in house; host or cells: Sf9 insect cells (baculovirus)
Protocol: His-tagged CDK2/Cyclin E and CDK1/Cyclin B may be co-expressed and PKCα singularly expressed in Sf 9 insect cells infected with the appropriate baculovirus constructs. The cells are harvested two days after infection by low speed centrifugation and the proteins purified from the insect cell pellets by Metal-chelate chromatography. Briefly, the insect cell pellet is lysed in Buffer A (10 mM Tris-HCl, pH 8.0, 150 mM NaCl, 0.02% NP40 and 5 mM β-marcaptoethanol, 1 mM NaF. 1 mM Na3VO4 and Protease Inhibitors Coctail (Sigma) containing AEBSF, pepstatin A, E 64, bestatin, leupeptin) by sonication. The soluble fraction is cleared by centrifugation and loaded onto Ni-NTA-Agarose (Quiagen). Non bound proteins were washed off with 300 mM NaCl, 5-15 mM Imidazole in Buffer A and the bound proteins eluted with 250 mM Imidazole in Buffer A. The purified proteins are extensively dialyzed against Storage buffer (20 mM HEPES pH 7.4, 50 mM NaCl, 2 mM DTT, 1 mM EDTA, 1 mM EGTA, 0.02% NP40, 10% v/v Glycerol) aliquoted and stored at −70° C.

[9] = molecular target: CDK7/cyclin H (Homo sapiens, UniProt P50613); assay: CDK7 assay (CTD peptide substrate); type: biochemical
Protocol: CTD peptide substrate (biotinyl-Ahx-(Tyr-Ser-Pro-Thr-Ser-Pro-Ser)4-NH2; 1-2 mg/mL) and recombinant human CDK7/cyclin H, CDK9/cyclin T1, or CDK9/cyclin K (0.5-2 μg) were incubated for 45 min at 30° C. in the presence of varying amounts of test compound in 20 mM MOPS pH 7.2, 25 mM β-glycerophosphate, 5 mM EGTA, 1 mM DTT, 1 mM sodium vanadate, 15 mM MgCl2, and 100 μM ATP (containing a trace amount of ^32PγATP) in a total volume of 25 μL in a 96-well microtiter plate. The reaction was stopped by placing the plate on ice for 2 min. Avidin (50 μg) was added to each well, and the plate was incubated at room temp for 30 min. The samples were transferred to a 96-well P81 filter plate, and washed (4×200 μL per well) with 75 mM phosphoric acid. Microscint 40 scintillation liquid (50 μL) was added to each well, and the amount of ^32P incorporation for each sample was measured using a Packard Topcount microplate scintillation counter.

[10] = molecular target: CDK9/cyclin T1 (Homo sapiens, UniProt P50750); assay: CDK9 assay (CTD peptide substrate); type: biochemical
Outline: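 Recombinant human CDK7/cyclin H or CDK9/cyclin T1 with biotinylated CTD peptide, 45 min at 30 °C, pH 7.2 MOPS buffer, 15 mM MgCl2, 100 μM ATP with trace [γ-32P]ATP. Avidin capture on P81 filters, phosphoric acid washes, 32P incorporation by scintillation counting.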

[11] = test system: HIV-1RoJo/PBMC; assay: Anti-HIV efficacy in fresh human PBMCs, strain RoJo; type: cell-based; conditions: HIV-1RoJo/PBMC; for IC50: Human immunodeficiency virus 1, read-out: IC50 (concentration inhibiting virus replication by 50%); for IC90: Human immunodeficiency virus 1, read-out: IC90 (concentration inhibiting virus replication by 90%)
Protocol: Fresh PBMCs, seronegative for HIV and HBV, were isolated from screened donors (Interstate Blood Bank, Inc. Memphis, Tenn.). Cells were pelleted/washed 2-3 times by low speed centrifugation and re-suspension in PBS to remove contaminating platelets. […] Banded PBMCs were gently aspirated from the resulting interface and subsequently washed with PBS by low speed centrifugation. […] The cells were allowed to incubate at 37° C. […] IL-2 is included in the culture medium to maintain the cell division initiated by the PHA mitogenic stimulation. PBMCs were maintained in this with bi-weekly medium changes until used in the assay protocol. Cells were kept in culture for a maximum of two weeks before being deemed too old for use in assays and discarded. Monocytes were depleted from the culture as the result of adherence to the tissue culture flask.
Tritiated thymidine triphosphate (^3H-TTP, 80 Ci/mmol, NEN) was received in 1:1 dH2O:Ethanol at 1 mCi/mL. Poly rA:oligo dT template:primer (Pharmacia) was prepared as a stock solution, followed by aliquoting and storage at −20° C. The RT reaction buffer was prepared fresh on a daily basis. The final reaction mixture was prepared by combining ^3H-TTP, dH2O, poly rA:oligo dT stock and reaction buffer. This reaction mixture was placed in a round bottom microtiter plate and supernatant containing virus was added and mixed. The plate was incubated at 37° C. for 60 minutes. Following incubation, the reaction volume was spotted onto DE81 filter-mats (Wallac), in a sodium phosphate buffer or 2×SSC (Life Technologies). Next they were washed in distilled water, in 70% ethanol, and then dried. Incorporated radioactivity (counts per minute, CPM) was quantified using standard liquid scintillation techniques.

[12] = test system: HIV-1; assay: Anti-viral cell-based assays; conditions: result in words
[13] = Compound cytotoxicity in PBMC assay plates (MTS cell viability); conditions: human, TC50 (concentration decreasing cell viability by 50%)
[14] = molecular target: CDK2/cyclin A (Homo sapiens, UniProt P24941); assay: CDK2/cyclin A kinase assay; type: biochemical;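 also: Read-out is incorporated radioactivity retained on P81 filter plates and quantified by scintillation counting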
Protocol: Reactions were stopped on ice, followed by filtration through p81 filterplates (Whatman Polyfiltronics, Kent, UK). After washing 3 times with 75 mM orthophosphoric acid, plates were dried, scintillant added and incorporated radioactivity measured in a scintillation counter (TopCount, Packard Instruments, Pangboume, Berks, UK).

[15] = Table 3, read-out: Average IC50 CDK2 cyclin E1
[16] = Table 3, read-out: Average IC50 CDK4 cyclin D1
[17] = Table 3, read-out: Average IC50 CDK7 cyclin H
[18] = Table 3, read-out: Average IC50 CDK9 cyclin T1
[19] = Table 3, read-out: Average IC50 CDK2 cyclin A2
[20] = Table 4, read-out: Kinase Inhibition IC50 CDK2-cyclin E
[21] = Table 4, read-out: Kinase Inhibition IC50 CDK2-cyclin A
[22] = Table 4, read-out: Kinase Inhibition IC50 CDK4-cyclin D1
[23] = Table 4, read-out: Kinase Inhibition IC50 CDK7-cyclin H
[24] = Table 4, read-out: Kinase Inhibition IC50 CDK9-cyclin T1

Chain of CDK7/cyclin H (P50613 whole entry): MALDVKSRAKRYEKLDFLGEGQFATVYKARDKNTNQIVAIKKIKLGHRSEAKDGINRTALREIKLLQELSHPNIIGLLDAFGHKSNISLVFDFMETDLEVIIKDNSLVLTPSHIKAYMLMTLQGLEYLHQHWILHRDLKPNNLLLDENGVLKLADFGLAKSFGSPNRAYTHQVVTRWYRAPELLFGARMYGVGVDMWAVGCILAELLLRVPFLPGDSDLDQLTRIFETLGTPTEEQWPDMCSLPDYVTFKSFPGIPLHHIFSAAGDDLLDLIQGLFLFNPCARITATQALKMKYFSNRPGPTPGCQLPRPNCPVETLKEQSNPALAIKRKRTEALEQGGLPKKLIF
Chain of CDK7/cyclin H (P51946 whole entry partner): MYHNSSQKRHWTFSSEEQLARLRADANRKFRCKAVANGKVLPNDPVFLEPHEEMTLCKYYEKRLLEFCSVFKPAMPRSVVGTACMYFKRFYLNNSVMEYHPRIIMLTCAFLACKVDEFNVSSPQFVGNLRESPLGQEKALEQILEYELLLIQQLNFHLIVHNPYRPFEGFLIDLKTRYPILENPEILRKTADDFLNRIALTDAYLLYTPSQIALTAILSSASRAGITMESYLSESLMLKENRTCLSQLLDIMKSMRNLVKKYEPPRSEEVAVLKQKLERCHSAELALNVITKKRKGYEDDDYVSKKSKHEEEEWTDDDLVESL
Chain of CDK4/Cyclin D1 (P11802 whole entry, species assumed): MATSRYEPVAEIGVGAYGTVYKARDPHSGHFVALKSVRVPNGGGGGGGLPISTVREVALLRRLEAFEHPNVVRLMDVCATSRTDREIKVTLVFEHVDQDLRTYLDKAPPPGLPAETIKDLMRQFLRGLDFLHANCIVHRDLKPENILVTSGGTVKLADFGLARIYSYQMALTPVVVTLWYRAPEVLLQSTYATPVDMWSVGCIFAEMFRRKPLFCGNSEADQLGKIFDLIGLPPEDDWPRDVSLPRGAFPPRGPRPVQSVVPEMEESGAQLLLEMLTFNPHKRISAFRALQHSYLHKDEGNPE
Chain of CDK4/Cyclin D1 (P24385 whole entry partner, species assumed): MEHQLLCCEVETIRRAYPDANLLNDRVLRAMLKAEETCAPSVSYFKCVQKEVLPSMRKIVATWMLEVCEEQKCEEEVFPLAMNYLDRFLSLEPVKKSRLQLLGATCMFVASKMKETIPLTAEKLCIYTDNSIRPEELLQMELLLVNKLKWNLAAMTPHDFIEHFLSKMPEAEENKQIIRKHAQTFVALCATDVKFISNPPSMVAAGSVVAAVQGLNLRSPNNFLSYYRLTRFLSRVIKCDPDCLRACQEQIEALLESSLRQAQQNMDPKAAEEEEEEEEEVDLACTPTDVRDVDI
Chain of CDK9/cyclin T1 (P50750 whole entry): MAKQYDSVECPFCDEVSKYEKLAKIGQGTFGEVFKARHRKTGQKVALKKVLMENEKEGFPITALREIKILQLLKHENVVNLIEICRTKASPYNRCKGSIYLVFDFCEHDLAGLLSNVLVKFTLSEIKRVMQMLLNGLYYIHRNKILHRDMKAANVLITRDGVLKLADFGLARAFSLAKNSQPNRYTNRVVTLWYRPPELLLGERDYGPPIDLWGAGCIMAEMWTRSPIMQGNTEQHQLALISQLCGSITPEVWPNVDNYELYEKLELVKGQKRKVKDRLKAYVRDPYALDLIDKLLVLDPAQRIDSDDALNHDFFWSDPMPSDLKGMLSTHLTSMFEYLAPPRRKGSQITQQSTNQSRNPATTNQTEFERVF
Chain of CDK9/cyclin T1 (O60563 whole entry partner): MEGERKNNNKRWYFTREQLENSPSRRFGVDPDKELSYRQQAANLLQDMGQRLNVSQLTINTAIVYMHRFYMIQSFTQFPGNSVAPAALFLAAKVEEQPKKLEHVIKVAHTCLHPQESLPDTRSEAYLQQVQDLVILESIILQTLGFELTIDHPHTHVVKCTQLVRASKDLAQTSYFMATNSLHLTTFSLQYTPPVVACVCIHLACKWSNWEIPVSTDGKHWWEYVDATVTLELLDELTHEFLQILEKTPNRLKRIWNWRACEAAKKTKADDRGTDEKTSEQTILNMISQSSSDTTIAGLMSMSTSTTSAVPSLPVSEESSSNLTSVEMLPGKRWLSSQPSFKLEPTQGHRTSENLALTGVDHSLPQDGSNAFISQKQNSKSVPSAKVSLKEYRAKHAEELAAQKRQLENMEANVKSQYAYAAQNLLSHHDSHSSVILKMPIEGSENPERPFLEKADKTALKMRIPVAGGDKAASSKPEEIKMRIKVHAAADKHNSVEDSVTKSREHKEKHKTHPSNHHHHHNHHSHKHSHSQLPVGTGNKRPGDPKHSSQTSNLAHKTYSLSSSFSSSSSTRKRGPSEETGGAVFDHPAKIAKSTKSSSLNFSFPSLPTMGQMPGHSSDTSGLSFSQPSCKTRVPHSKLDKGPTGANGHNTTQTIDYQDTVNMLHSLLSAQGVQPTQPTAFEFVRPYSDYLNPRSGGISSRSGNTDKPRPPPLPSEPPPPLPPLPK
Chain of CDK1/Cyclin B (P06493 whole entry, species assumed): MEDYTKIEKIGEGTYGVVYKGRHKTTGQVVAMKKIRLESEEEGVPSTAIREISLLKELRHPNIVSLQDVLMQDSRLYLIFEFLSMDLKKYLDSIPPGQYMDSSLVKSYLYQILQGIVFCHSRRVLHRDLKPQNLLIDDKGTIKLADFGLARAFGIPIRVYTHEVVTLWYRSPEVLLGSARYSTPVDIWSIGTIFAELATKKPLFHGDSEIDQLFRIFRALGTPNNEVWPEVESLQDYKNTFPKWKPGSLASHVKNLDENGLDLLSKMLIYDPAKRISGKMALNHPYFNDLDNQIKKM
Chain of CDK1/Cyclin B (P14635 whole entry partner, species assumed): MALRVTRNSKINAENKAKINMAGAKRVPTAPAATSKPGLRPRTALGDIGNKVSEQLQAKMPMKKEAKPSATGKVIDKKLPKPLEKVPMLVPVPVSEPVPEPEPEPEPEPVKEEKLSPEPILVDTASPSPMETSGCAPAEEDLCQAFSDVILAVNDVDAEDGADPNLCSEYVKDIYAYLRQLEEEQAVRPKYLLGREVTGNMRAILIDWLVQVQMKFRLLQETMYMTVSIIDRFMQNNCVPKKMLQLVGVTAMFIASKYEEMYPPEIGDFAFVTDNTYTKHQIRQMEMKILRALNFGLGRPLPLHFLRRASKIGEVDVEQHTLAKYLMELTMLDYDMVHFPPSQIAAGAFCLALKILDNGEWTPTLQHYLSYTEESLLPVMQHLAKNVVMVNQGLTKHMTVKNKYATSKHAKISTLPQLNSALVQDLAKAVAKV
Chain of SAPK2a (Q16539 whole entry, species assumed): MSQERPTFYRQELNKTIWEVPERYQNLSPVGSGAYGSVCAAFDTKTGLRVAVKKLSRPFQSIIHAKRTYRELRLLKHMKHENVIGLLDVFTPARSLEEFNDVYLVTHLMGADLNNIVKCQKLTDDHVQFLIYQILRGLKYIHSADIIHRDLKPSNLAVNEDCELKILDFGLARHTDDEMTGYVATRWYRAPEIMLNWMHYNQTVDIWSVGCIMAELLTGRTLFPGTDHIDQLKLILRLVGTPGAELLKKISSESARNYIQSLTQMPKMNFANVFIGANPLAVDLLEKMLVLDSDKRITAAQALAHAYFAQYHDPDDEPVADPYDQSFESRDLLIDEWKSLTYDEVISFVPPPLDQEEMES
Chain of ERK2 (P28482 whole entry, species assumed): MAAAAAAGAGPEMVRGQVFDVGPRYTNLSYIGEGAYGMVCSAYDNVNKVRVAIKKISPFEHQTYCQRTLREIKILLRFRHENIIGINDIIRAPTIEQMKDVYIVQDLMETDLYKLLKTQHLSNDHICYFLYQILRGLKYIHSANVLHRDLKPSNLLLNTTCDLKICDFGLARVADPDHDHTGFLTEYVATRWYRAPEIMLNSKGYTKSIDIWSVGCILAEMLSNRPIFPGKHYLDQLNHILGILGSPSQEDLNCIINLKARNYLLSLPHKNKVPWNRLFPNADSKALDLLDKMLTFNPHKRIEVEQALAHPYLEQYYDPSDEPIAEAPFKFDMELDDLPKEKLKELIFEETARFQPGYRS

IC50 [7] [nM] | IC50 [8, 15] [nM] | IC50 [1, 16] [nM] | IC50 [9, 17] [nM] | IC50 [10, 18] [nM] | IC50 [14, 19] [nM] | SMILES | anti-viral effectiveness as demonstrated by cell-based assays [12] | CC50 at 7 days ([13]; HIV-1RoJo/PBMC) [nM] | also measured
9000 |  |  |  |  |  | COc1ccc(Nc2nccc(-c3sc(C)nc3C)n2)cc1 [Compound 26, [4-(2,4-Dimethyl-thiazol-5-yl)-pyrimidin-2-yl]-(4-methoxy-phenyl)-amine] |  |  | IC50 ([1]; Table 2, read-out: Average IC50 CDK4 cyclin D1): 2400 nM; IC50 [2]: > 50000 nM; IC50 [3]: > 50000 nM; IC50 [4]: > 50000 nM; IC50 [5]: > 50000 nM; IC50 [6]: 45000 nM
1500 | 530 | 1700 | 5200 | 410 | 530 | Cc1nc(C)c(-c2ccnc(Nc3cccc(N)c3)n2)s1 [Compound 34, N-[4-(2,4-Dimethyl-thiazol-5-yl)-pyrimidin-2-yl]-benzene-1,3-diamine] |  |  | 
> 100000 | 770 | > 100000 | 19000 | 8300 | > 100000 | CNc1nc(C)c(-c2ccnc(Nc3cccc(C(F)(F)F)c3)n2)s1 [Compound 75, [4-(4-Methyl-2-methylamino-thiazol-5-yl)-pyrimidin-2-yl]-(3-trifluoromethyl-phenyl)-amine] |  |  | 
1800 | 390 | 820 | 2800 | 800 | 420 | Cc1nc(N)sc1-c1ccnc(Nc2ccc(CCO)cc2)n1 [Compound 118, 2-{4-[4-(2-Amino-4-methyl-thiazol-5-yl)-pyrimidin-2-ylamino]-phenyl}-ethanol] |  |  | 
> 100000 | 88 | 4700 | 390 | 210 | 4200 | CCNc1nc(C)c(-c2ccnc(Nc3cccc([N+](=O)[O-])c3)n2)s1 [Compound 133, [4-(2-Ethylamino-4-methyl-thiazol-5-yl)-pyrimidin-2-yl]-(3-nitro-phenyl)-amine] |  |  | 
49000 | 480 | 105000 | > 100000 | 7100 | 1800 | Cc1nc(N(C)C)sc1-c1ccnc(Nc2cccc([N+](=O)[O-])c2)n1 [Compound 140, [4-(2-Dimethylamino-4-methyl-thiazol-5-yl)-pyrimidin-2-yl]-(3-nitro-phenyl)-amine] |  |  | 
710 | 250 | 500 | 990 | 59 | 520 | Cc1nc(N)sc1-c1ccnc(Nc2cccc(N)c2)n1 [Compound 149, N-[4-(2-Amino-4-methyl-thiazol-5-yl)-pyrimidin-2-yl]-benzene-1,3-diamine] |  |  | 
3000 |  |  |  |  |  | Cc1c(-c2ccnc(Nc3cccc([N+](=O)[O-])c3)n2)sc(=O)n1C [Compound 153, 3,4-Dimethyl-5-[2-(3-nitro-phenylamino)-pyrimidin-4-yl]-3H-thiazol-2-one] |  |  | IC50 [8, 20]: 610 nM; IC50 [14, 21]: 16 nM; IC50 [1, 22]: 560 nM; IC50 [9, 23]: 120 nM; IC50 [10, 24]: 2.2 nM
96 |  |  |  |  |  | Cc1ccc(Nc2nccc(-c3sc(=O)n(C)c3C)n2)cc1[N+](=O)[O-] [Compound 163, 3,4-Dimethyl-5-[2-(4-methyl-3-nitro-phenylamino)-pyrimidin-4-yl]-3H-thiazol-2-one] |  |  | IC50 [8, 20]: 36000 nM; IC50 [14, 21]: 84 nM; IC50 [1, 22]: 110 nM; IC50 [9, 23]: 1.2 nM; IC50 [10, 24]: 14 nM

SMILES | IC50 [7] [nM] | IC50 [8, 15] [nM] | IC50 [1, 16] [nM] | IC50 [9, 17] [nM] | IC50 [10, 18] [nM] | IC50 [14, 19] [nM] | anti-viral effectiveness as demonstrated by cell-based assays [12] | CC50 at 7 days ([13]; HIV-1RoJo/PBMC) [nM] | also measured
Cc1nc(C)c(-c2ccnc(Nc3ccc(O)cc3)n2)s1 [Compound 28, 4-[4-(2,4-Dimethyl-thiazol-5-yl)-pyrimidin-2-ylamino]-phenol] | 1800 | 280 | 600 | 2400 | 460 |  | particularly effective anti-viral agents | 22000 | TI (therapeutic index: TC50/IC50) [11]: 80; IC50 [11]: 280 nM; IC90 [11]: 21000 nM
CNc1nc(C)c(-c2ccnc(Nc3ccc(F)cc3)n2)s1 [Compound 47, (4-Fluoro-phenyl)-[4-(4-methyl-2-methylamino-thiazol-5-yl)-pyrimidin-2-yl]-amine] |  | 37 |  |  | 82 |  | particularly effective anti-viral agents | 6800 | TI (therapeutic index: TC50/IC50) [11]: 34; IC50 [11]: 200 nM; IC90 [11]: 1200 nM
CNc1nc(C)c(-c2ccnc(Nc3cccc(O)c3)n2)s1 [Compound 70, 3-[4-(4-Methyl-2-methylamino-thiazol-5-yl)-pyrimidin-2-ylamino]-phenol] |  | 270 |  | 3400 | 48 |  | particularly effective anti-viral agents | 2700 | TI (therapeutic index: TC50/IC50) [11]: 4.3; IC50 [11]: 630 nM; IC90 [11]: 2600 nM
Cc1nc(C)c(-c2ccnc(Nc3ccc(N(C)C)cc3)n2)s1 [Compound 103, N,N-Dimethyl-N′-[4-(2,4-dimethyl-thiazol-5-yl)-pyrimidin-2-yl]-benzene-1,4-diamine] | 7300 |  |  | 11000 | 1800 |  | particularly effective anti-viral agents | > 100000 | CC50 at 7 days ([13]; HIV-1WeJo/PBMC): 800 nM
COc1ccc(Nc2nccc(-c3sc(C)nc3C)n2)cc1OC [Compound 125, (3,4-Dimethoxy-phenyl)-[4-(2,4-dimethyl-thiazol-5-yl)-pyrimidin-2-yl]-amine] | 250 | 33 | 1100 | 5900 | 590 | 260 | particularly effective anti-viral agents | 27000 | TI (therapeutic index: TC50/IC50) [11]: 33; IC50 [11]: 820 nM; IC90 [11]: 970 nM
